Patent publication US10774083B2, “Heterocyclic amide compound” (TAKEDA PHARMACEUTICAL COMPANY LIMITED, priority 2016, dated 2020)

Experiments:
[1] = target: T1, human PRS protein (His-Avi-hEPRS (998-1512)) (Homo sapiens, UniProt P07814); assay: PRS inhibitory activity ([32P]pyrophosphate exchange enzyme assay); type: biochemical; conditions: 300 nM test compound; read-out: inhibitory rate (%) of PRS
T1 construct: to construct His-Avi-hEPRS (998-1512) expression plasmid; His tag (N); Avi tag (N); TEV cleavage site (ENLYFQG, then S; inferred from the forward primer hEPRS-TEV-NheF) (N); made in house; host or cells: E. coli BL21(DE3)
T1 sequence (P07814 998-1512 limits assumed): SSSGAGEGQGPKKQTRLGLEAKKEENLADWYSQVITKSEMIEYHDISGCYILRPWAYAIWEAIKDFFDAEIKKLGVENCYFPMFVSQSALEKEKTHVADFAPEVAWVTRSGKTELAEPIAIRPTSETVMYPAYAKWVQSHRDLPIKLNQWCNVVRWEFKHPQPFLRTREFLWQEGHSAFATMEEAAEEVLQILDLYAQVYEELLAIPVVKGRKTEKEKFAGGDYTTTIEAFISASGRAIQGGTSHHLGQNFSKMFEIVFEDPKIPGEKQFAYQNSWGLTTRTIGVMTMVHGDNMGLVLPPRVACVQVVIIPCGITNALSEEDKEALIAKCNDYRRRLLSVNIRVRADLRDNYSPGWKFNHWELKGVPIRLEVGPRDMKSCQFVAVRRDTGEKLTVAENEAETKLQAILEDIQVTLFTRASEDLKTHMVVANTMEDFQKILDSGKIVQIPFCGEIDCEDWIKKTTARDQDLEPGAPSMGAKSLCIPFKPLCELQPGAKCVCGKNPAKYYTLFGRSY
Method: The PRS inhibitory activity of the compounds of the present invention was evaluated by the following method.
An expression plasmid of Catalytic Domain of human EPRS was obtained by PCR using human skeletal muscle cDNA Library (Takara Bio Inc.) as a template and 2 kinds of Primers 5′-[…]-3′ (hEPRS-TEV-NheF) (SEQ ID NO: 1) and 5′-[…]-3′ (hEPRS-St-Not-R) (SEQ ID NO: 2). PCR was performed using PrimeStar GXL DNA Polymerase (Takara Bio Inc.) and included (1) 98° C., 1 min, (2) 35 cycles of 98° C., 10 sec, 65° C., 10 sec, 72° C., 1 min, and (3) reaction at 72° C., 1 min. This was cleaved with Nhe I and Not I (Takara Bio Inc.) and inserted using Ligation High (TOYOBO CO., LTD.) into the Nhe I/Not I site of pET21a (Novagen) with His-Avitag inserted thereinto. This was introduced into ECOS JM109 (NIPPON GENE CO., LTD.) to construct His-Avi-hEPRS (998-1512) expression plasmid.
Recombinant human PRS protein was prepared by transforming the His-Avi-hEPRS (998-1512) expression plasmid prepared above into ECOS Competent E. coli BL21(DE3) (NIPPON GENE CO., LTD.). Escherichia coli obtained by transformation was inoculated into 300 mL of LB medium (1% peptone, 0.5% yeast extract, 0.5% sodium chloride, 0.01% ampicillin) and cultured at 30° C. for 16 hr. The obtained culture medium was transferred into a jar culture tank charged with 6 L of the main fermentation medium (0.3% potassium dihydrogen phosphate, 0.6% disodium hydrogen phosphate, 0.1% ammonium chloride, 0.05% sodium chloride, 0.024% magnesium sulfate, 0.02% NEWPOL LB-625, 1.5% sorbitol, 1.5% casamino acid, 0.5% yeast extract, 0.01% ampicillin) and culturing was started at 37° C., quantity of airflow 5 L/min, stirring rotating speed 400 rpm. At the time point when the turbidity of the culture medium reached about 550 Klett units, the culture temperature was lowered to 16° C., isopropyl-β-D-thiogalactopyranoside (IPTG) was added to the final concentration 0.1 mM, and culturing was performed for another 16 hr to induce expression of human PRS. After completion of culturing, the culture medium was centrifuged at 5,000 rpm for 10 min. The obtained human PRS expressing Escherichia coli was suspended in a buffer containing 50 mM Tris-HCl (pH 8.0), 150 mM NaCl, 1 mM DTT, 5 U/ml Benzonase, 20 mM Imidazole and sonicated using Sonifier (BRANSON). The homogenate was centrifuged (33,000×G, 60 min, Beckman Coulter), the obtained supernatant was subjected to adsorption by passage through Ni-NTA Superflow (QIAGEN) column equilibrated in advance with 50 mM Tris-HCl (pH 8.0), 300 mM NaCl, 1 mM DTT, and elution was performed with a buffer containing 50 mM Tris-HCl (pH 8.0), 300 mM NaCl, 1 mM DTT, 250 mM Imidazole. Furthermore, gel filtration was performed using Superdex200 pg column equilibrated in advance with a buffer containing 50 mM Tris-HCl (pH 8.0), 150 mM NaCl, 1 mM DTT, 10% glycerol to give purified human PRS protein. The protein concentration was measured using BCA Protein Assay Kit (PIERCE) and BSA as the standard.
A test compound was dissolved in 5 μL of an assay buffer (50 mM Tris-HCl (pH 7.5), 20 mM KCl, 1 mM DTT, 0.01% Tween 20) and incubated for 60 min with 5 μL of 40 nM human PRS protein dissolved in the assay buffer containing 40 mM MgCl2. An enzyme reaction of the human PRS protein was started by adding 10 μL of a substrate solution containing 300 μM ATP, 160 μM L-Proline, 400 μM pyrophosphate, [^32P]pyrophosphate (PerkinElmer) prepared to 1 MBq/mL. After incubation at room temperature for 30 min, the reaction was discontinued by adding 50 μL of discontinuation/washing solution (1M HCl, 200 mM sodium pyrophosphate) to the reaction mixture. The reaction solution was transferred to a filter plate (Merck Millipore, Billerica, Mass.) previously added with 200 μL of charcoal solution (0.5% HCl solution containing 10% charcoal (w/v)). […]

[2] = tested on: human ovarian cancer cells A2780; assay: proliferation inhibitory activity against human ovarian cancer cell A2780 (CellTiter-Glo); type: cell-based; conditions: A2780, 72 h, 1 μM test compound, 3 days of culture, read-out: proliferation inhibitory rate (%) of A2780 cells
Method: The proliferation inhibitory activity of the compound of the present invention against human ovarian cancer cell A2780 was evaluated by the following method.
Human ovarian cancer cells A2780 were seeded in a 384 well culture plate at 1000 cells in 30 μL of medium per well by using RPMI-1640 medium (Wako Pure Chemical Industries, Ltd.) containing 10% fetal bovine serum and penicillin/streptomycin. The next day, 10 μL of RPMI-1640 medium containing the test compound was added to the cells. After 3 days of culture, 20 μL of CellTiter-Glo Luminescent Cell Viability Assay solution (Promega) was added. The luminescence signal was measured using EnVision (PerkinElmer) and the inhibitory rate (%) of the test compound was calculated with a well free of seeding of cell as 100% inhibition.

Compound	inhibition at 0.3 µM [1] [%]	inhibition at 1 µM [2] [%]
Cn1cc(-c2cc(F)cc(CNC(=O)c3ncnc4nc(C5CCCC5)n(C)c34)c2)nn1 [Example 7, 8-cyclopentyl-N-(3-fluoro-5-(1-methyl-1H-1,2,3-triazol-4-yl)benzyl)-7-methyl-7H-purine-6-carboxamide]	102	95
Cn1cc2c(CNC(=O)c3ncnc4nc(C5CCCC5)[nH]c34)cccc2n1 [Example 10, 8-cyclopentyl-N-((2-methyl-2H-indazol-4-yl)methyl)-7H-purine-6-carboxamide]	97	55
CC(C)n1cc(-c2cc(F)cc(CNC(=O)c3ncnc4nc(C5CCCC5)[nH]c34)c2)cn1 [Example 11, 8-cyclopentyl-N-(3-fluoro-5-(1-isopropyl-1H-pyrazol-4-yl)benzyl)-7H-purine-6-carboxamide]	102	95
O=C(NCc1cc(F)cc(-c2cnn(C3CC3)c2)c1)c1ncnc2nc(C3CCCC3)[nH]c12 [Example 14, 8-cyclopentyl-N-(3-(1-cyclopropyl-1H-pyrazol-4-yl)-5-fluorobenzyl)-7H-purine-6-carboxamide]	100	97
Cn1cc(-c2cc(C#N)cc(CNC(=O)c3ncnc4nc(C5CCCC5)[nH]c34)c2)cn1 [Example 16, N-(3-cyano-5-(1-methyl-1H-pyrazol-4-yl)benzyl)-8-cyclopentyl-7H-purine-6-carboxamide]	102	93
COc1nc(C(=O)NCc2cc(F)cc(-c3cnn(C)c3)c2)c2[nH]c(C3CCCC3)nc2n1 [Example 18, 8-cyclopentyl-N-(3-fluoro-5-(1-methyl-1H-pyrazol-4-yl)benzyl)-2-methoxy-7H-purine-6-carboxamide]	99	77
Cn1cc(-c2cc(C#N)cc(CNC(=O)c3ncnc4nc(C5CCCO5)n(C)c34)c2)cn1 (stereo not drawn) [Example 23, N-(3-cyano-5-(l-methyl-1H-pyrazol-4-yl)benzyl)-7-methyl-8-(tetrahydrofuran-2-yl)-7H-purine-6-carboxamide]	102	69
Cn1cc(-c2cc(F)cc(CNC(=O)c3ncnc4nc(C5CCOC5)[nH]c34)c2)cn1 (stereo not shown) [Example 24, N-(3-fluoro-5-(1-methyl-1H-pyrazol-4-yl)benzyl)-8-(tetrahydrofuran-3-yl)-7H-purine-6-carboxamide]	96	57
Cn1cc(-c2cc(F)cc(CNC(=O)c3ncnc4nc(C5(F)CCCC5)[nH]c34)c2)cn1 [Example 27, 8-(1-fluorocyclopentyl)-N-(3-fluoro-5-(1-methyl-1H-pyrazol-4-yl)benzyl)-7H-purine-6-carboxamide]	99	97
Cn1c(C2CCCC2)nc2ncnc(C(=O)NCc3cc(F)cc(-c4cnn(C(C)(C)CO)c4)c3)c21 [Example 30, 8-cyclopentyl-N-(3-fluoro-5-(1-(1-hydroxy-2-methylpropan-2-yl)-1H-pyrazol-4-yl)benzyl)-7-methyl-7H-purine-6-carboxamide]	102	99
Cn1cc(-c2cc(F)cc(CNC(=O)c3ncnc4nc(C5CCCCO5)[nH]c34)c2)cn1 (stereo not shown) [Example 31, N-(3-fluoro-5-(1-methyl-1H-pyrazol-4-yl)benzyl)-8-(tetrahydro-2H-pyran-2-yl)-7H-purine-6-carboxamide]	102	97
Cn1cc(-c2cc(F)cc(CNC(=O)c3ncnc4nc(C5CCC(F)(F)C5)[nH]c34)c2)cn1 (stereo not shown) [Example 40, 8-(3,3-difluorocyclopentyl)-N-(3-fluoro-5-(1-methyl-1H-pyrazol-4-yl)benzyl)-7H-purine-6-carboxamide]	102	98
Cn1cc(-c2cc(F)cc(CNC(=O)c3nc(N)nc4nc(C5CCCC5)[nH]c34)c2)cn1 [Example 42, 2-amino-8-cyclopentyl-N-(3-fluoro-5-(1-methyl-1H-pyrazol-4-yl)benzyl)-7H-purine-6-carboxamide]	98	59
CC(c1nc2ncnc(C(=O)NCc3cc(F)cc(-c4cnn(C)c4)c3)c2[nH]1)C1CC1 (stereo not shown) [Example 45, 8-(1-cyclopropylethyl)-N-(3-fluoro-5-(1-methyl-1H-pyrazol-4-yl)benzyl)-7H-purine-6-carboxamide]	101	99
Cn1cc(-c2ccnc(CNC(=O)c3ncnc4nc(C5CCCC5)n(C)c34)c2)cn1 [Example 52, 8-cyclopentyl-7-methyl-N-((4-(1-methyl-1H-pyrazol-4-yl)pyridin-2-yl)methyl)-7H-purine-6-carboxamide]	99	69
Cc1cn(-c2cc(F)cc(CNC(=O)c3ncnc4nc(C5CCCC5)n(C)c34)c2)nc1C [Example 56, 8-cyclopentyl-N-(3-(3,4-dimethyl-1H-pyrazol-1-yl)-5-fluorobenzyl)-7-methyl-7H-purine-6-carboxamide]	102	99
Cn1cc(-c2cc(F)cc(CNC(=O)c3ncnc4nc(C5CCC5)[nH]c34)c2)cn1 [Example 58, 8-cyclobutyl-N-(3-fluoro-5-(1-methyl-1H-pyrazol-4-yl)benzyl)-7H-purine-6-carboxamide]	99	66
